The record followed here is US5925769A, “Acetylenic 1,5-diarylpyrazoles as antiinflammatory agents” (Ortho Pharmaceutical, Corp., priority 1998, dated 1999).

In assay [1] the target is T1, 5-LO (Rattus norvegicus, UniProt P12527).
T1 construct: the supernatant was saved as the source of enzymes; endogenous in cells; host or cells: RBL-1 (rat basophilic leukemia) cells
T1 sequence (P12527 1-673): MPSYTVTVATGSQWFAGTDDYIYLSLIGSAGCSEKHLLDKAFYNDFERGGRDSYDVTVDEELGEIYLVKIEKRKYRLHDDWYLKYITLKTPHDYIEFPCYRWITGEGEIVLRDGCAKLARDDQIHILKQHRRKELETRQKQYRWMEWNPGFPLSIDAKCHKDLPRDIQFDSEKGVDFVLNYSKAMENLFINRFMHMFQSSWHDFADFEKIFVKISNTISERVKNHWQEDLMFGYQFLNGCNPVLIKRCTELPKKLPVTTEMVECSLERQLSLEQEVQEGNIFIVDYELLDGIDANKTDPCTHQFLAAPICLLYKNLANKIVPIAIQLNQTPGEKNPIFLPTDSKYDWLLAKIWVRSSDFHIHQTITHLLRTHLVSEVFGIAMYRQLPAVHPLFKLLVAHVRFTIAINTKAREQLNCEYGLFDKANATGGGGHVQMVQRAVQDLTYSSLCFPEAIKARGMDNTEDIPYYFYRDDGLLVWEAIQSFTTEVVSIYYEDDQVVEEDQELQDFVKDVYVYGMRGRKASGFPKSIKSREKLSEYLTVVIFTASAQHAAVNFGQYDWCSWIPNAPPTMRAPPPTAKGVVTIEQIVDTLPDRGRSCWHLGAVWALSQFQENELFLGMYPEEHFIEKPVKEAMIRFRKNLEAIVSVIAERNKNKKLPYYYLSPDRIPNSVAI
Put plainly: Procedure III: 5-LO (5-HETE) in intact RBL-1 cells. In kind it is cell-based. Particulars: calcium ionophore A 23187, read-out: Proc. III 5-LO IC50. Put shortly:
(§1)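 Intact RBL-1 cells at 1×10^5 cells/mL in HBSS were preincubated with vehicle or drug, pelleted and resuspended, then given 1-^14C-AA. 5-HETE (5-LO) and PgD2 (CO) were separated by TLC after acidification/extraction and quantified by radioimaging; IC50 from regression curve fit.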

The test system of assay [2] is CO. Put plainly: Procedure IV: ex vivo eicosanoid synthesis assay using dogs, CO (TxB2). The class given is in vivo. To be noted: dog, oral, 5 mg/kg. The procedure: (§2) Adult beagle or mongrel dogs (10-15 kg) of either sex were fasted overnight prior to the initiation of each experiment. The forelimb was clipped and swabbed with an alcohol prep (70% isopropanol). Blood was drawn by venipuncture into syringes containing lithium heparin (Starstead, Newton, N.C.) immediately prior to administration of compound or vehicle and then at various intervals following dosing. The test compound was administered orally as a suspension in 0.5% methocel. At various times after dosing, blood samples were drawn and placed on an electric rocker platform to assure complete and continuous mixing. White blood cell (wbc) counts were performed using a Sysmex hematology analyzer. This was done in an effort to normalize the number of leukocytes to be stimulated with calcium ionophore. A 1.0 mL aliquot of whole blood was challenged with 50 μL of a 2.6×10^-5 M solution of calcium ionophore A23187 (Calbiochem, La Jolla, Calif.) prepared in DMSO and diluted in HBSS. After a 15 minute incubation at 37° C., the reaction was stopped by placing the samples in an ice bath (4° C.) for 5 minutes and then centrifuging at 11,000×g for 5 minutes to separate the plasma fraction from blood cells. The plasma fraction was removed, diluted in an appropriate buffer, and analyzed for the presence of LTB4 and TxB2 by standard RIA techniques.

Assay [3] relates to 5-LO. Kind of assay: Procedure IV: ex vivo eicosanoid synthesis assay using dogs, 5-LO (LTB4). The class given is in vivo. To be noted: dog, oral, 5 mg/kg. As for the experimental part: as §2
Assay [4] concerns the target T1, 5-LO. Kind of assay: Procedure II: 5-LO activity (5-HETE) in broken RBL-1 cells (homogenate supernatant). In kind it is biochemical. Particulars: RBL-1 broken cell supernatant; for IC50: read-out: Proc. II 5-LO IC50; for inhibition at 10 µM: 20 min, @ 10 .quadrature.M, read-out: Proc. II 5-LO % inhibition. Put shortly: (§3)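 Supernatant from rat RBL-1 homogenate (9,220×g) was pre-incubated 5 min at 37 °C with 2 mM CaCl2 and compound or 1% DMSO, then with 1-^14C-arachidonic acid for 20 min at 37 °C.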

Assay [5] has as its target T2, Sheep seminal vesicle (SSV) cyclooxygenase (Ovis aries, UniProt P05979).
T2 construct: Sheep seminal vesicle (SSV) cyclooxygenase (95% pure); purchased Biomol (Plymouth Meeting, PA); host or cells: sheep seminal vesicle
T2 sequence (P05979 25-600): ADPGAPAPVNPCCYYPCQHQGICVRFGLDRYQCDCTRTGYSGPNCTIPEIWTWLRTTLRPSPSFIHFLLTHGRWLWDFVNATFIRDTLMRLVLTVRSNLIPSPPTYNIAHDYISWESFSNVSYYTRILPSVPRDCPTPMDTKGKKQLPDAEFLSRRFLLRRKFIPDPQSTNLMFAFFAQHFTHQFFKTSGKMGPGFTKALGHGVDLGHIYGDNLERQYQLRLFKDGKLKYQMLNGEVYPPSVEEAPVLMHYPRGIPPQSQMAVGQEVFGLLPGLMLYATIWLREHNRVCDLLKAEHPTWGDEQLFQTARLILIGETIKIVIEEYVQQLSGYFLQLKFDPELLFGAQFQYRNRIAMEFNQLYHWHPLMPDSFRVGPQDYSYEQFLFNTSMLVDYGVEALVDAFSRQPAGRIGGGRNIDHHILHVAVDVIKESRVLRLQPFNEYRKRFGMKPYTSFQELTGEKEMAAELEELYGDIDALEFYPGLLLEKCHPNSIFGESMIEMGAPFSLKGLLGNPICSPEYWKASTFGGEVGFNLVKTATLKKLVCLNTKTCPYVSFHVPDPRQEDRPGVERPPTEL
Put plainly: Procedure I: inhibition of sheep seminal vesicle (SSV) cyclooxygenase. The class given is biochemical. Particulars: SSV cyclooxygenase; for IC50: read-out: Proc. I IC50; for inhibition at 10 µM: 20 min, @ 10 .quadrature.M, read-out: Proc. I % inhibition. Put shortly:
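Turnover of [1-14C]-arachidonic acid by SSV cyclooxygenase ran 20 min after a 5 min preincubation at 37° C with test compound. Products (PGD2, PGE2, etc.) were extracted, resolved by TLC and quantified by radio-imaging; inhibition came from comparing curve areas with and without compound.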

In assay [6] the target is T3, CO (Rattus norvegicus, UniProt Q63921).
T3 construct: the supernatant was saved as the source of enzymes; endogenous in cells; host or cells: RBL-1 (rat basophilic leukemia) cells
T3 sequence (Q63921 27-602): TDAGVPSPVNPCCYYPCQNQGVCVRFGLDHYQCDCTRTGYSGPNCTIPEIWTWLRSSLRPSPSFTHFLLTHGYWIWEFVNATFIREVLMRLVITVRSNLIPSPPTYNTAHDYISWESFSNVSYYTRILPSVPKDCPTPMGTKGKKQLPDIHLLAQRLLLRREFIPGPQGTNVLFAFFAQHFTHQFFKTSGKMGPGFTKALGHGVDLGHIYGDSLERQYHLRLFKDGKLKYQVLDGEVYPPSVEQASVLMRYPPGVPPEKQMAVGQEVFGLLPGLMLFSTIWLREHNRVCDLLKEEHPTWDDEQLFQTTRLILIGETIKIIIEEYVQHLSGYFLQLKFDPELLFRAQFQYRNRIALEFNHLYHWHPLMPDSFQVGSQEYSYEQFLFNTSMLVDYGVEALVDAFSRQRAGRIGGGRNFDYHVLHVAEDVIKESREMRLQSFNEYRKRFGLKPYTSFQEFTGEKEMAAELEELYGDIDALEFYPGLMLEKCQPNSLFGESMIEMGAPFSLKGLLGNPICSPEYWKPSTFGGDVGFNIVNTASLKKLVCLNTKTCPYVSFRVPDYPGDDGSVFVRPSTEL
Put plainly: Procedure II: CO activity in broken RBL-1 cells (homogenate supernatant). In kind it is biochemical. To be noted: RBL-1 broken cell supernatant; for inhibition at 10 µM: 20 min, @ 10 .quadrature.M, read-out: Proc. II CO % inhibition. A digest of the protocol: as §3

Assay [7] has as its target T3, CO. Kind of assay: Procedure III: CO (PgD2) in intact RBL-1 cells. The class given is cell-based. To be noted: calcium ionophore A 23187, read-out: Proc. III CO IC50. Put shortly: as §1

One may read the IC50 as the concentration needed to halve the response being measured. As for `COc1ccc(-n2nc(C#CC(C)N(O)C(C)=O)cc2-c2ccc(Cl)cc2)cc1` (centres unmarked) [Cpd 35, N-acetyl-N-(1-(5-(4-chlorophenyl)-1-(4-methoxyphenyl)pyrazol-3-yl)-1-butyn-3-yl)hydroxylamine], the IC50 stood at 8.1 µM at 5-LO [1], 0.11 µM on 5-LO [4] and 2.54 µM in assay [5]. Moreover, the “% inh CO” value with CO [2] (2 h) was determined as 92%; with CO [2] (4 h), 75%; in the assay with CO [2] (6 h) it was 81%; in the assay on CO [2] (8 h), 62%; with CO [2] (24 h), 68%. In addition, the “% inh 5-LO” value came out at 34% in the assay on 5-LO [3] (2 h); 20% in the assay with 5-LO [3] (4 h); 26% in the assay with 5-LO [3] (6 h); 31% with 5-LO [3] (8 h); 12% with 5-LO [3] (24 h).
Usually inhibition stands for the relative decrease from the control value, in per cent. As to `CCC(=O)N(O)CC#Cc1cc(-c2ccc(C)cc2)n(-c2ccc(OC)cc2)n1` [Cpd 14], the results for the IC50 at 5-LO [1] and at CO [7] were 3 µM and 0.06 µM, respectively. In addition, the inhibition at 10 µM on CO [6] stood at 100%; on 5-LO [4], 100%; in assay [5], 79%.
With `COc1ccc(-n2nc(C#CC(C(C)C)N(O)C(N)=O)cc2-c2ccc(Cl)cc2)cc1` (centres unmarked) [Cpd 12], the IC50 on 5-LO [1] was found to be 3.9 µM; on CO [7] it was 14.5 µM. Also, the inhibition at 10 µM was 0% on CO [6], 90% on 5-LO [4] and 38% in assay [5].
Regarding `CCc1ccc(-c2cc(C#CC(C)N(O)C(=O)CCl)nn2-c2ccc(OC)cc2)cc1` (centres unmarked) [Cpd 31], the values for the 50% inhibitory concentration (IC50) (on 5-LO [1]; on CO [7]; in assay [5]) were 36.8 µM, 1.7 µM and 6.1 µM, respectively. The inhibition at 10 µM on CO [6] was 86%; at 5-LO [4] it was 100%.
Regarding `COc1ccc(-n2nc(C#CC(C(C)C)N(O)C(N)=O)cc2-c2ccc(C)cc2)cc1` (centres unmarked) [Cpd 4], the 50% inhibitory concentration (IC50) worked out at 8.4 µM at 5-LO [1], 4.6 µM at CO [6] (read-out: Proc. II CO IC50), 1.2 µM at CO [7] and 0.24 µM on 5-LO [4]. Moreover, the inhibition at 10 µM in assay [5] was 29%.
With `COc1ccc(-n2nc(C#CC(C)N(O)C(=O)c3cccnc3)cc2-c2ccc(C)cc2)cc1` (centres unmarked) [Cpd 26], the half-inhibitory concentration (IC50) on 5-LO [1] was found to be 25.4 µM; on CO [7], 11.5 µM; in assay [5], 6 µM. For the same compound, the inhibition at 10 µM at CO [6] came to 54%; on 5-LO [4], 88%.
